Where a name gives a salt, the structure may show the parent alone.
Target: T1, Na^+/H^+-Exchangers von Kaninchenerythrocyten (Oryctolagus cuniculus, UniProt P23791)
T1 construct: den Na^+-Influx in die Erythrocyten via Na^+/H^+-Austausch flammenphotometrisch bestimmen zu können; from tissue; host or cells: Erythrocytes from ear-artery blood of cholesterol-fed New Zealand White rabbits
Experiment: Inhibition of the Na+/H+ exchanger of rabbit erythrocytes (amiloride-sensitive sodium influx, flame photometry)
Assay type: cell-based, Kaninchen
Conditions: hyperosmolar salt-sucrose medium, pH 7,4, 37°C, read-out: IC50 Inhibition des Na^+/H^+-Exchangers
Description: Inhibition des Na^+/H^+-Exchangers von Kaninchenerythrocyten Weiße Neuseeland-Kaninchen (Ivanovas) erhielten eine Standard-Diät mit 2% Cholesterin für sechs Wochen, um den Na^+/H^+-Austausch zu aktivieren und so den Na^+-Influx in die Erythrocyten via Na^+/H^+-Austausch flammenphotometrisch bestimmen zu können. Das Blut wurde den Ohrarterien entnommen und durch 25 IE Kalium-Heparin ungerinnbar gemacht. Ein Teil jeder Probe wurde zur Doppelbestimmung des Hämatokrits durch Zentrifugieren benutzt. Aliquots von jeweils 100 µl dienten zur Messung des Na^+-Ausgangsgehalts der Erythrocyten.
Um den Amilorid-sensitiven Natrium-Influx zu bestimmen, wurden 100 µl jeder Blutprobe in jeweils 5 ml eines hyperosmolaren Salz-Sucrose-Mediums (mmol/l: 140 NaCl, 3 KCl, 150 Sucrose, 0,1 Ouabain, 20 Tris-hydroxymethylaminomethan) bei pH 7,4 und 37°C inkubiert. Die Erythrocyten wurden danach dreimal mit eiskalter MgCl2-Ouabain-Lösung (mmol/l: 112 MgCl2, 0,1 Ouabain) gewaschen und in 2,0 ml destilliertem Wasser hämolysiert. Der intrazelluläre Natriumgehalt wurde flammenphotometrisch bestimmt.
Der Na^+-Nettoinflux wurde aus der Differenz zwischen Natrium-Ausgangswerten und dem Natriumgehalt der Erythrocyten nach Inkubation errechnet. Der Amilorid-hemmbare Natrium-Influx ergab sich aus der Differenz des Natriumgehalts der Erythrocyten nach Inkubation mit und ohne Amilorid 3 x 10^-4 mol/l. Auf diese Weise wurde auch bei den erfindungsgemäßen Verbindungen verfahren.

T1 sequence (P23791 whole entry): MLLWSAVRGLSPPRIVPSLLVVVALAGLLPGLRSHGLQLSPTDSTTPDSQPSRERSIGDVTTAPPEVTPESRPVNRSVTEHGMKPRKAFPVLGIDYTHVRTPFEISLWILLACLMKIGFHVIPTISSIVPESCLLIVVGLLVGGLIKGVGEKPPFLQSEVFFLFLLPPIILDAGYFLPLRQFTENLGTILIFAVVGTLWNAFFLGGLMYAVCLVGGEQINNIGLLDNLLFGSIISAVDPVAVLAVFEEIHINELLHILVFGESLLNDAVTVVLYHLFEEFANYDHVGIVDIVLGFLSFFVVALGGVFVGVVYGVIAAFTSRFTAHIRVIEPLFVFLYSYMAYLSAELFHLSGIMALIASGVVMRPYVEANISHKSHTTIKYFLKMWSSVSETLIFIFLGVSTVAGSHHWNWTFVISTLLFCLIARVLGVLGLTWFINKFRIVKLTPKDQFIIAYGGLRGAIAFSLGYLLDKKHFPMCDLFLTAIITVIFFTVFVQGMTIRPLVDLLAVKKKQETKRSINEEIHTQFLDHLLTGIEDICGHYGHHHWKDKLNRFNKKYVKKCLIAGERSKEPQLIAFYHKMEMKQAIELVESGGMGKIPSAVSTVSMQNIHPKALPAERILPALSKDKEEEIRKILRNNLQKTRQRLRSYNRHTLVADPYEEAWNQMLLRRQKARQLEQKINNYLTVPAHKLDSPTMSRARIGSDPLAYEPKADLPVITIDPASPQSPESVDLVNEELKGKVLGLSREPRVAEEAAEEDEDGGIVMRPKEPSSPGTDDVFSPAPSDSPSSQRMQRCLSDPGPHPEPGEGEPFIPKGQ

SMILES | IC50
N=C(N)NC(=O)c1c(Cl)cccc1Cl [Beispiel 1, 2,6-Dichlor-benzoylguanidin-hydrochlorid] | 10 µM
NC(N)=NC(=O)c1c(F)c(F)c(O)c(F)c1F [Beispiel 3, 4-Hydroxy-2,3,5,6-tetrafluor-benzoylguanidin-hydrochlorid] | 0.3 µM
NC(N)=NC(=O)c1c(F)cccc1F [Beispiel 4, 2,6-Difluor-benzoylguanidin-hydrochlorid] | > 10 µM

Further lines, results first:

IC50 | SMILES
> 10 µM | COc1ccc(C(F)(F)F)c(OC)c1C(=O)N=C(N)N [Beispiel 6, 3-Trifluormethyl-2,6-dimethoxy-benzoylguanidin-hydrochlorid]
10 µM | NC(N)=NC(=O)c1c(F)cccc1C(F)(F)F [Beispiel 5, 2-Fluor-6-trifluormethyl-benzoylguanidin-hydrochlorid]
8.5 µM | COc1ccc(Cl)c(OC)c1C(=O)N=C(N)N [Beispiel 2, 3-Chlor-2,6-dimethoxy-benzoylguanidin-hydrochlorid]
